Test results reported in PubChem BioAssay AID2060483 (Molecular Pharmacology Branch, DTP, NCI, 2025).

Test system: K24384-001-R-PDC complex spheroids, viability
Assay: Anticancer human tumor K24384-001-R-PDC patient-derived pancreatic adenocarcinoma cell line growth inhibition [GQUAD]
Settings: for IC50: curve of first compound; for viability, T/C: stronger effect = lower value; active = viability on the fitted dose curve at most 10% of control; inactive = the rest
Text: DNA G-quadruplex Stabilizer Agents in Combinations in Complex Spheroids
A high-throughput screen of multi-cell type tumor spheroids was designed to identify active combinations of DNA G-quadruplex stabilizer agents and targeted small molecules. Complex spheroids include a stromal component modeled by human endothelial cells (HUVEC) and fibroblasts modeled by human mesenchymal stem cells (MSCs). The concentration ranges selected for each drug and investigational agent were based upon clinically achievable concentrations if the clinical Cmax of the agent was known.
Compounds. The drugs and investigational agents: pidnarulex (CX-5461; NSC782164), APTO-253 (NSC789042), BRACO-19 (NSC847499), peposertib (NSC802822), ceralasertib (NSC780249), elimusertib (NSC800525), camonsertib (NSC841442), AZD-1390 (NSC803789), olaparib (NSC753686), talazoparib (NSC767125), ART-558 (NSC835418), sotorasib (NSC818433), MRTX-1133 (NSC836407), SN-38 (NSC673596), topotecan (NSC609699), etoposide (NSC141540), doxorubicin (NSC123127), gemcitabine (NSC613327), 5-fluorouracil (NSC19893), paclitaxel (NSC125973), vemurafenib (NSC761431), panobinostat (NSC761190), R-306465 (JNJ-16241199; NSC773264), adavosertib (NSC754352), TP-3654 (NSC805149), carboplatin (NSC241240), KSQ-4279 (NSC840948), and staurosporine (NSC755774) were obtained from the National Cancer Institute (NCI) Developmental Therapeutics Program Chemical Repository (34). The FDA-approved anticancer drug set is available from the NCI Developmental Therapeutics Program. […] The stock solutions were prepared in dimethyl sulfoxide (DMSO, Sigma-Aldrich, St. Louis, MO, cat. D2650) at 800-fold the tested concentration and stored at -70 degrees C prior to their use. All drugs and investigational agents were tested over a range starting from a high concentration at or near the clinical Cmax and decreasing in half-log increments. If the clinical Cmax for an agent had not been determined, the highest concentration tested was 10 microM.
2.3 Cell Culture. All cells were maintained in an incubator at 37 degrees C and 5% CO2 with 95% humidity. The PDC lines were cultured according to standard operating procedures established by the NCI PDMR. All PDCs were thawed and cultured in Matrigel-coated flasks prepared with a working solution of 1X Ham's F-12 nutrient mix, without supplementation (Invitrogen, cat. 11765054), 100 U/mL penicillin-streptomycin (Invitrogen, cat. 15140122), and 2.5% Matrigel (Corning Inc., cat. 354248) for the first three passages. The 857933-349-R-J2-PDC line was cultured in 6C/Colon 1B media, which includes advanced DMEM/F-12 (Thermo Fisher Scientific, cat. 12634028), 10 mM HEPES (Thermo Fisher Scientific, cat. 15630080), 1X GlutaMAX supplement (Thermo Fisher Scientific, cat. 35050061), 0.1 mg/mL primocin (InvivoGen, cat. ant-pm-2), 10% defined fetal bovine serum, heat inactivated (HyClone Laboratories Inc., cat. SH30070.03HI), 50% L-WRN conditioned media (ATCC, cat. CRL-3276), 1.25 mM N-Acetyl-L-cysteine (Sigma-Aldrich, cat. A9165), 10 mM nicotinamide (Sigma-Aldrich, cat. N0636), 1X B-27 supplement (Thermo Fisher Scientific, cat. 17504044), 1X N-2 supplement (Thermo Fisher Scientific, cat. 17502048), 10 microM Y-27632 dihydrochloride (Tocris Bioscience, cat. 1254), and 50 ng/mL human EGF recombinant protein (Thermo Fisher Scientific, cat. PHG0311). The 485176-168-R4-J1-PDC line was cultured in Panc media, which includes all 6C/Colon 1B media components plus 100 ng/mL human FGF-10 (Thermo Fisher Scientific, cat. 100-26), 500 nM SB-431542 (Selleckchem, cat. S1067), and gastrin (Tocris, cat. 3006).
[…]

[1] = second compound 0.0316 µM, first compound 0.0316 µM
[2] = second compound 0.0316 µM, first compound 0.1 µM
[3] = second compound 0.0316 µM, first compound 0.316 µM
[4] = second compound 0.0316 µM, first compound 1 µM
[5] = second compound 0.0316 µM, first compound 3.16 µM
[6] = second compound 0.0316 µM, first compound 10 µM
[7] = second compound 0.1 µM, first compound 0.0316 µM
[8] = second compound 0.1 µM, first compound 0.1 µM
[9] = second compound 0.1 µM, first compound 0.316 µM
[10] = second compound 0.1 µM, first compound 1 µM
[11] = second compound 0.1 µM, first compound 3.16 µM
[12] = second compound 0.1 µM, first compound 10 µM
[13] = second compound 0.316 µM, first compound 0.0316 µM
[14] = second compound 0.316 µM, first compound 0.1 µM
[15] = second compound 0.316 µM, first compound 0.316 µM
[16] = second compound 0.316 µM, first compound 1 µM
[17] = second compound 0.316 µM, first compound 3.16 µM
[18] = second compound 0.316 µM, first compound 10 µM
[19] = second compound 1 µM, first compound 0.0316 µM
[20] = second compound 1 µM, first compound 0.1 µM
[21] = second compound 1 µM, first compound 0.316 µM
[22] = second compound 1 µM, first compound 1 µM
[23] = second compound 1 µM, first compound 3.16 µM
[24] = second compound 1 µM, first compound 10 µM
[25] = second compound 3.16 µM, first compound 0.0316 µM
[26] = second compound 3.16 µM, first compound 0.1 µM
[27] = second compound 3.16 µM, first compound 0.316 µM
[28] = second compound 3.16 µM, first compound 1 µM
[29] = second compound 3.16 µM, first compound 3.16 µM
[30] = second compound 3.16 µM, first compound 10 µM
[31] = second compound 10 µM, first compound 0.0316 µM
[32] = second compound 10 µM, first compound 0.1 µM
[33] = second compound 10 µM, first compound 0.316 µM
[34] = second compound 10 µM, first compound 1 µM
[35] = second compound 10 µM, first compound 3.16 µM
[36] = second compound 10 µM, first compound 10 µM
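Note: spheroids exposed to compounds for seven days.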

COc1ncnc(C2CC2)c1-c1ncc2cnn(Cc3ccc(-c4nc(C(F)(F)F)cn4C(C)C)cc3)c2n1 + CN(C)c1ccc(Nc2c3ccc(NC(=O)CCN4CCCC4)cc3nc3cc(NC(=O)CCN4CCCC4)ccc23)cc1
> 10000 nM: IC50 (second compound 0.0316 µM) | IC50 (second compound 0.1 µM) | IC50 (second compound 0.316 µM) | IC50 (second compound 1 µM) | IC50 (second compound 3.16 µM)
inactive: viability, T/C [1] 85% | viability, T/C [2] 107% | viability, T/C [3] 107% | viability, T/C [4] 96.9% | viability, T/C [5] 83.6% | viability, T/C [6] 104% | viability, T/C [7] 73.9% | viability, T/C [8] 86.3% | viability, T/C [9] 100% | viability, T/C [10] 86.1% | viability, T/C [11] 96.7% | viability, T/C [12] 110% | viability, T/C [13] 79.9% | viability, T/C [14] 90.7% | viability, T/C [15] 77% | viability, T/C [16] 102% | viability, T/C [17] 97.2% | viability, T/C [18] 93.5% | viability, T/C [19] 88.1% | viability, T/C [20] 84.2% | viability, T/C [21] 88.6% | viability, T/C [22] 95.6% | viability, T/C [23] 73.7% | viability, T/C [24] 88.6% | viability, T/C [25] 85.1% | viability, T/C [26] 112% | viability, T/C [27] 85.6% | viability, T/C [28] 79.1% | viability, T/C [29] 86.9% | viability, T/C [30] 91.8% | viability, T/C [31] 65.7% | viability, T/C [32] 99.2% | viability, T/C [33] 79.2% | viability, T/C [34] 88% | viability, T/C [35] 70.4% | viability, T/C [36] 40.6%
6950 nM: IC50 (second compound 10 µM)

Nc1ccn(C2OC(CO)C(O)C2(F)F)c(=O)n1 (centres undefined) + Cc1[nH]c2ccc(F)cc2c1-c1nc2c3cccnc3c3ncccc3c2[nH]1
318 nM: IC50 (second compound 0.316 µM)
215 nM: IC50 (second compound 0.0316 µM)
240 nM: IC50 (second compound 3.16 µM)
208 nM: IC50 (second compound 0.1 µM)
290 nM: IC50 (second compound 1 µM)
110 nM: IC50 (second compound 10 µM)
inactive: viability, T/C [1] 87.6% | viability, T/C [2] 62.5% | viability, T/C [3] 44.5% | viability, T/C [4] 30.6% | viability, T/C [5] 26.2% | viability, T/C [6] 23.2% | viability, T/C [7] 75.7% | viability, T/C [8] 66.4% | viability, T/C [9] 36.7% | viability, T/C [10] 35.8% | viability, T/C [11] 26.4% | viability, T/C [12] 19.8% | viability, T/C [13] 71.1% | viability, T/C [14] 69.5% | viability, T/C [15] 46.9% | viability, T/C [16] 34.8% | viability, T/C [17] 27.9% | viability, T/C [18] 20.6% | viability, T/C [19] 81.3% | viability, T/C [20] 70% | viability, T/C [21] 42.5% | viability, T/C [22] 38.8% | viability, T/C [23] 33.3% | viability, T/C [24] 22.1% | viability, T/C [25] 69.4% | viability, T/C [26] 60.9% | viability, T/C [27] 41.3% | viability, T/C [28] 43.2% | viability, T/C [29] 25.3% | viability, T/C [30] 19.7% | viability, T/C [31] 54.9% | viability, T/C [32] 52.6% | viability, T/C [33] 39.6% | viability, T/C [34] 30.7% | viability, T/C [35] 19.8% | viability, T/C [36] 15.1%
